Assay results taken from US20230096766A1, “AMINO ACID HAVING FUNCTIONAL GROUP CAPABLE OF INTERMOLECULAR HYDROGEN BONDING, PEPTIDE COMPOUND CONTAINING SAME AND METHOD FOR PRODUCTION THEREOF” (Chugai Seiyaku Kabushiki Kaisha, priority 2018, published 2023).
*1 amine or outer side, *2 acyl side, *3 side chain or, on linkers, in order; H or OH if unused. Where a SMILES comes first, the peptide text is derived from it. Bridges are numbered along the chain shown (N, C = ends). [ ]: non-standard residue; d: D form. The star is where a group is joined. ξ: configuration not given here. X19 = CC(C)C[C@H](NN(C)[C@H](Cc1ccccc1)N(C)[*:1])C(=O)[*:2]; NMePhe(3-Cl) = CN[C@@H](Cc1cccc(Cl)c1)C(=O)O; X12 = O=C([C@H](CCCC(O)C(F)(F)F)N[*:1])[*:2]; Tyr(3-OMe) = COc1cc(C[C@H](N)C(=O)O)ccc1O; NMeF = CN[C@@H](Cc1ccccc1)C(=O)O; NMeGABA = CN(CCCC(=O)[*:2])[*:1]; NMeI = CC[C@H](C)[C@H](NC)C(=O)O; NMeξIle = CC[C@H](C)C(NC)C(=O)O; NMeL = CN[C@@H](CC(C)C)C(=O)O; NMeV = CN[C@H](C(=O)O)C(C)C; NMeAbu = CC[C@H](NC)C(=O)O; NMeA = CN[C@@H](C)C(=O)O; Piperidide = C1CCN(*)CC1; NBuGly = CCCCNCC(=O)O; ξV = CC(C)C(N)C(=O)O; Sar = CNCC(=O)O; tBu = CC(C)(C)*

Experiment: in vitro
Conditions: human, Caco-2, Caco-2 (cm/sec)

Compound | Papp [×10⁻⁶ cm/s]
COc1cc(C[C@@H]2NC(=O)[C@H](CC(C)C)N(C)C(=O)CN(C)C(=O)[C@H]([C@@H](C)O)NC(=O)[C@H](CC(C)C)N(C)C(=O)[C@H](CC(C)C)NN(C)[C@H](Cc3ccccc3)N(C)C(=O)[C@@H](C(C)C)NC(=O)C[C@@H](C(=O)N3CCCCC3)NC(=O)[C@H](CC(C)C)N(C)C(=O)[C@H](CC(C)C)N(C)C2=O)ccc1O [Compound E01] ([dV][X19][NMeL]T[Sar][NMeL][Tyr(3-OMe)][NMeL][NMeL]D-Piperidide; lactam N-10) | 1.1
CCCCN1CC(=O)N(C)[C@@H](CC(C)C)C(=O)N[C@@H](COC(C)(C)C)C(=O)N(C)[C@@H](CC(C)C)C(=O)N(C)[C@@H](CC)C(=O)N[C@H](C(=O)N2CCCCC2)CC(=O)N[C@H](CC(C)C)C(=O)N(C)[C@@H](Cc2ccccc2)C(=O)N[C@@H](Cc2ccc(O)c(OC)c2)C(=O)N(C)[C@@H](CC(C)C)C(=O)N[C@@H]([C@@H](C)O)C1=O [Compound E02] ([dL][NMeF][Tyr(3-OMe)][NMeL]T[NBuGly][NMeL]S(tBu)[NMeL][NMeAbu]D-Piperidide; lactam N-11) | 0.31
CC[C@H](C)[C@@H]1NC(=O)[C@H](CC(C)C)N(C)C(=O)CCCN(C)C(=O)C[C@@H](C(=O)N2CCCCC2)NC(=O)[C@H](CC(C)C)N(C)C(=O)[C@H](CC(C)C)N(C)C(=O)[C@H]([C@@H](C)O)NC(=O)[C@H](CC(C)C)N(C)C(=O)[C@H](Cc2ccc(O)c(OC)c2)NC(=O)[C@H](CC(C)C)N(C)C(=O)[C@H](Cc2ccccc2)N(C)C1=O [Compound E03] ([NMeGABA][NMeL]I[NMeF][NMeL][Tyr(3-OMe)][NMeL]T[NMeL][NMeL]D-Piperidide; lactam N-11) | 0.18
COc1cc(C[C@@H]2NC(=O)[C@H](CC(C)C)N(C)C(=O)CCCN(C)C(=O)C[C@@H](C(=O)N3CCCCC3)NC(=O)[C@H](CC(C)C)N(C)C(=O)[C@H](CC(C)C)N(C)C(=O)[C@H]([C@@H](C)O)NC(=O)[C@H](CC(C)C)N(C)C(=O)[C@H](COC(C)(C)C)NC(=O)[C@H](Cc3ccccc3)N(C)C(=O)[C@H](CC(C)C)N(C)C2=O)ccc1O [Compound E04] ([NMeGABA][NMeL][Tyr(3-OMe)][NMeL][NMeF]S(tBu)[NMeL]T[NMeL][NMeL]D-Piperidide; lactam N-11) | 0.4
CC[C@H]1C(=O)N[C@@H](CC(C)C)C(=O)N(C)[C@@H](CC(C)C)C(=O)N(C)[C@@H](Cc2ccccc2)C(=O)N[C@@H](Cc2ccc(O)c(OC)c2)C(=O)N(C)[C@@H](CC(C)C)C(=O)N(C)[C@@H](CC(C)C)C(=O)N[C@@H]([C@@H](C)O)C(=O)N(C)CC(=O)N(C)[C@@H](CC(C)C)C(=O)N[C@H](C(=O)N2CCCCC2)CC(=O)N1C [Compound E05] ([NMeAbu]L[NMeL][NMeF][Tyr(3-OMe)][NMeL][NMeL]T[Sar][NMeL]D-Piperidide; lactam N-11) | 1.8

Same assay, conditions: human, Caco-2, Caco-2 (membrane permeability)

Compound | Papp [×10⁻⁶ cm/s]
CC(C)C[C@H]1C(=O)N[C@@H](CCCC(O)C(F)(F)F)C(=O)N(C)[C@@H](Cc2cccc(Cl)c2)C(=O)N(C)[C@@H](Cc2ccccc2)C(=O)N[C@@H](COC(C)(C)C)C(=O)N(C)[C@@H](CC(C)C)C(=O)N[C@@H]([C@@H](C)O)C(=O)N(C)[C@@H](CC(C)C)C(=O)N(C)[C@@H](CC(C)C)C(=O)N[C@H](C(=O)N2CCCCC2)CC(=O)N(C)CCCC(=O)N1C (stereo partly drawn) [Compound D02] ([NMeGABA][NMeL][X12][NMePhe(3-Cl)][NMeF]S(tBu)[NMeL]T[NMeL][NMeL]D-Piperidide; lactam N-11) | 0.14
CC[C@H](C)[C@@H]1NC(=O)[C@H](CC(C)C)N(C)C(=O)CCCN(C)C(=O)C[C@@H](C(=O)N2CCCCC2)NC(=O)[C@H](CC(C)C)N(C)C(=O)[C@H](CC(C)C)N(C)C(=O)[C@H]([C@@H](C)O)NC(=O)[C@H](CC(C)C)N(C)C(=O)[C@H](CCCC(O)C(F)(F)F)NC(=O)[C@H](Cc2ccccc2)N(C)C(=O)[C@H](Cc2ccccc2)N(C)C1=O (stereo partly drawn) [Compound D03] ([NMeGABA][NMeL]I[NMeF][NMeF][X12][NMeL]T[NMeL][NMeL]D-Piperidide; lactam N-11) | 0.33
CCCCN1CC(=O)N(C)[C@@H](CC(C)C)C(=O)N[C@H](C(=O)N2CCCCC2)CC(=O)N(C)[C@@H](C)C(=O)N[C@@H](CCCC(O)C(F)(F)F)C(=O)N(C)[C@@H](CC(C)C)C(=O)N(C)[C@@H](Cc2ccccc2)C(=O)N[C@@H](CC(C)C)C(=O)N(C)[C@@H](Cc2ccccc2)C(=O)N(C)[C@@H]([C@@H](C)CC)C(=O)N[C@@H]([C@@H](C)O)C1=O (stereo partly drawn) [Compound D04] ([NMeA][X12][NMeL][NMeF]L[NMeF][NMeI]T[NBuGly][NMeL]D-Piperidide; lactam N-11) | 0.2
CC[C@H](C)[C@H]1C(=O)N[C@@H]([C@@H](C)O)C(=O)N(C)CC(=O)N(C)[C@@H](CC(C)C)C(=O)N[C@H](C(=O)N2CCCCC2)CC(=O)N(C)[C@@H](C(C)C)C(=O)N[C@@H](CC(C)C)C(=O)N(C)[C@@H](CC(C)C)C(=O)N(C)[C@@H](Cc2ccccc2)C(=O)N[C@@H](CCCC(O)C(F)(F)F)C(=O)N(C)[C@@H](Cc2ccccc2)C(=O)N1C (stereo partly drawn) [Compound D05] ([NMeV]L[NMeL][NMeF][X12][NMeF][NMeI]T[Sar][NMeL]D-Piperidide; lactam N-11) | 0.36
CCCCN1CC(=O)N(C)[C@@H](Cc2ccccc2)C(=O)N(C)[C@@H](CC(C)C)C(=O)N[C@@H](COC(C)(C)C)C(=O)N(C)[C@@H](CC(C)C)C(=O)N[C@H](C(=O)N2CCCCC2)CC(=O)N(C)CC(=O)N(C)[C@@H](Cc2cccc(Cl)c2)C(=O)N[C@@H](CCCC(O)C(F)(F)F)C(=O)N(C)[C@@H](CC(C)C)C(=O)N[C@@H]([C@@H](C)O)C1=O (stereo partly drawn) [Compound D06] ([Sar][NMePhe(3-Cl)][X12][NMeL]T[NBuGly][NMeF][NMeL]S(tBu)[NMeL]D-Piperidide; lactam N-11) | 0.23
CCCCN1CC(=O)N(C)[C@@H](Cc2ccccc2)C(=O)N(C)[C@@H](CC(C)C)C(=O)N[C@@H](CCCC(O)C(F)(F)F)C(=O)N(C)[C@@H](CC(C)C)C(=O)N[C@H](C(=O)N2CCCCC2)CC(=O)N(C)CC(=O)N(C)[C@@H](Cc2ccccc2)C(=O)N[C@@H]([C@@H](C)CC)C(=O)N(C)[C@@H](CC(C)C)C(=O)N[C@@H]([C@@H](C)O)C1=O (stereo partly drawn) [Compound D07] ([Sar][NMeF]I[NMeL]T[NBuGly][NMeF][NMeL][X12][NMeL]D-Piperidide; lactam N-11) | 0.37
CC[C@H](C)[C@H]1C(=O)N[C@@H]([C@@H](C)O)C(=O)N(C)CC(=O)N(C)[C@@H](CC(C)C)C(=O)N[C@H](C(=O)N2CCCCC2)CC(=O)N(C)[C@@H](C(C)C)C(=O)N[C@@H](CCCC(O)C(F)(F)F)C(=O)N(C)[C@@H](CC(C)C)C(=O)N(C)[C@@H](Cc2ccccc2)C(=O)N[C@@H](CC(C)C)C(=O)N(C)[C@@H](Cc2ccccc2)C(=O)N1C (stereo partly drawn) [Compound D08] ([NMeV][X12][NMeL][NMeF]L[NMeF][NMeI]T[Sar][NMeL]D-Piperidide; lactam N-11) | 0.53
CCCCN1CC(=O)N(C)[C@@H](CC(C)C)C(=O)N[C@@H](CCCC(O)C(F)(F)F)C(=O)N(C)[C@@H](Cc2ccccc2)C(=O)N(C)[C@@H](C(C)C)C(=O)N[C@H](C(=O)N2CCCCC2)CC(=O)N[C@H](C(C)C)C(=O)N(C)[C@@H](Cc2ccccc2)C(=O)N[C@@H](CC(C)C)C(=O)N(C)[C@@H](CC(C)C)C(=O)N[C@@H]([C@@H](C)O)C1=O (stereo partly drawn) [Compound D09] ([dV][NMeF]L[NMeL]T[NBuGly][NMeL][X12][NMeF][NMeV]D-Piperidide; lactam N-11) | 0.13
CC[C@H]1C(=O)N[C@@H](COC(C)(C)C)C(=O)N(C)[C@@H](Cc2ccccc2)C(=O)N(C)[C@@H](CC(C)C)C(=O)N[C@H](C(=O)N2CCCCC2)CC(=O)N[C@H](CC(C)C)C(=O)N(C)[C@@H](Cc2ccccc2)C(=O)N[C@@H](CC(C)C)C(=O)N(C)[C@@H](CC)C(=O)N[C@@H](CCCC(O)C(F)(F)F)C(=O)N(C)CC(=O)N1C (stereo partly drawn) [Compound D10] ([dL][NMeF]L[NMeAbu][X12][Sar][NMeAbu]S(tBu)[NMeF][NMeL]D-Piperidide; lactam N-11) | 0.81
CC[C@H]1C(=O)N(C)[C@@H](Cc2ccccc2)C(=O)N[C@@H](CC(C)C)C(=O)N(C)[C@@H](Cc2ccccc2)C(=O)N(C)[C@@H](C(C)C)C(=O)N[C@@H](CCCC(O)C(F)(F)F)C(=O)N(C)CC(=O)N(C)[C@@H](CC(C)C)C(=O)N[C@H](C(=O)N2CCCCC2)CC(=O)N(C)[C@@H](C)C(=O)N[C@@H](CC(C)C)C(=O)N1C (stereo partly drawn) [Compound D14] ([NMeA]L[NMeAbu][NMeF]L[NMeF][NMeV][X12][Sar][NMeL]D-Piperidide; lactam N-11) | 0.9
CC[C@H](C)C1C(=O)NC(C(C)C)C(=O)N(C)CC(=O)N(C)[C@@H](CC(C)C)C(=O)N[C@H](C(=O)N2CCCCC2)CC(=O)N(C)[C@@H](C)C(=O)N[C@@H](CCCC(O)C(F)(F)F)C(=O)N(C)[C@@H](CC(C)C)C(=O)N(C)[C@@H](Cc2ccccc2)C(=O)N[C@@H](CC(C)C)C(=O)N(C)[C@@H](Cc2ccccc2)C(=O)N1C (stereo partly drawn) [Compound D15] ([NMeA][X12][NMeL][NMeF]L[NMeF][NMeξIle][ξV][Sar][NMeL]D-Piperidide; lactam N-11) | 0.61
CCCCN1CC(=O)N(C)[C@@H](Cc2ccccc2)C(=O)N(C)[C@@H](CC(C)C)C(=O)N[C@@H](COC(C)(C)C)C(=O)N(C)[C@@H](CC(C)C)C(=O)N[C@H](C(=O)N2CCCCC2)CC(=O)N(C)CC(=O)N(C)[C@@H](Cc2ccccc2)C(=O)N[C@@H](C(C)C)C(=O)N(C)[C@@H](CC)C(=O)N[C@@H](CCCC(O)C(F)(F)F)C1=O (stereo partly drawn) [Compound D16] ([Sar][NMeF]V[NMeAbu][X12][NBuGly][NMeF][NMeL]S(tBu)[NMeL]D-Piperidide; lactam N-11) | 0.51
CC[C@H](C)[C@@H]1NC(=O)[C@H](CC(C)C)N(C)C(=O)[C@H](CCCC(O)C(F)(F)F)NC(=O)[C@H](Cc2ccccc2)N(C)C(=O)CN(C)C(=O)C[C@@H](C(=O)N2CCCCC2)NC(=O)[C@H](CC(C)C)N(C)C(=O)[C@H](COC(C)(C)C)NC(=O)[C@H](CC(C)C)N(C)C(=O)[C@H](Cc2ccccc2)N(C)C(=O)CN(C)C1=O (stereo partly drawn) [Compound D17] ([Sar][NMeF][X12][NMeL]I[Sar][NMeF][NMeL]S(tBu)[NMeL]D-Piperidide; lactam N-11) | 1
